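Following 48 hours of exposure in 96-well plates, responses at five concentrations were used to interpolate endpoints linearly. GI50 marks 50% less growth. The concentration for full growth arrest is given as TGI.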
Key:
Assay in all cases: inhibition of tumour cell growth, NCI panel, 48 h
SK-MEL-2 melanoma = system: SK-MEL-2 melanoma
SN12C renal = system: SN12C renal
SW-620 colon = system: SW-620 colon
CCRF-CEM leukemia = system: CCRF-CEM leukemia
HCT-15 colon = system: HCT-15 colon
CAKI-1 renal = system: CAKI-1 renal
M14 melanoma = system: M14 melanoma
UACC-257 melanoma = system: UACC-257 melanoma
MOLT-4 leukemia = system: MOLT-4 leukemia
HOP-92 NSCLC = system: HOP-92 NSCLC

N#Cc1c(NC(=O)NCc2ccccc2)sc2c1CCCCC2
GI50 (SK-MEL-2 melanoma): 2.27 µM
TGI (SK-MEL-2 melanoma): > 100 µM
GI50 (SN12C renal): 0.682 µM
TGI (SN12C renal): > 100 µM
GI50 (SW-620 colon): 0.406 µM
TGI (SW-620 colon): > 100 µM
GI50 (CCRF-CEM leukemia): 0.357 µM
TGI (CCRF-CEM leukemia): > 100 µM
GI50 (HCT-15 colon): 0.417 µM
TGI (HCT-15 colon): > 100 µM
GI50 (CAKI-1 renal): 0.659 µM
TGI (CAKI-1 renal): > 100 µM
GI50 (M14 melanoma): 0.415 µM
TGI (M14 melanoma): > 100 µM
GI50 (UACC-257 melanoma): 1.5 µM
TGI (UACC-257 melanoma): > 100 µM
GI50 (MOLT-4 leukemia): 0.456 µM
TGI (MOLT-4 leukemia): > 100 µM
GI50 (HOP-92 NSCLC): 0.547 µM
TGI (HOP-92 NSCLC): 20.9 µM

O=C(Nc1ccc(Br)cc1F)c1cc(F)ccc1O
GI50 (SK-MEL-2 melanoma): 0.398 µM
TGI (SK-MEL-2 melanoma): 2.56 µM
GI50 (SN12C renal): 0.366 µM
TGI (SN12C renal): 2.92 µM
GI50 (SW-620 colon): 0.805 µM
TGI (SW-620 colon): 15.4 µM
GI50 (CCRF-CEM leukemia): 2.4 µM
TGI (CCRF-CEM leukemia): 13.9 µM
GI50 (HCT-15 colon): 0.773 µM
TGI (HCT-15 colon): 7.34 µM
GI50 (CAKI-1 renal): 0.314 µM
TGI (CAKI-1 renal): 2.62 µM
GI50 (M14 melanoma): 0.514 µM
TGI (M14 melanoma): 4.07 µM
GI50 (UACC-257 melanoma): 0.466 µM
TGI (UACC-257 melanoma): 4 µM
GI50 (MOLT-4 leukemia): 1.86 µM
TGI (MOLT-4 leukemia): 6.4 µM
GI50 (HOP-92 NSCLC): 0.192 µM
TGI (HOP-92 NSCLC): 0.566 µM

CC1(C)CC(=O)C(C=NC(=S)c2ccccc2)=C(O)C1
TGI (SK-MEL-2 melanoma): > 100 µM
TGI (SN12C renal): > 100 µM
TGI (SW-620 colon): > 100 µM
TGI (CCRF-CEM leukemia): > 100 µM
TGI (HCT-15 colon): > 100 µM
TGI (CAKI-1 renal): > 100 µM
TGI (M14 melanoma): > 100 µM
TGI (UACC-257 melanoma): > 100 µM
TGI (MOLT-4 leukemia): > 100 µM
TGI (HOP-92 NSCLC): > 100 µM

N#Cc1c(N)nc(N2CCOCC2)c(C#N)c1-c1ccncc1
GI50 (SK-MEL-2 melanoma): > 100 µM
TGI (SK-MEL-2 melanoma): > 100 µM
GI50 (SN12C renal): 88.6 µM
TGI (SN12C renal): > 100 µM
GI50 (SW-620 colon): > 100 µM
TGI (SW-620 colon): > 100 µM
GI50 (CCRF-CEM leukemia): > 100 µM
TGI (CCRF-CEM leukemia): > 100 µM
GI50 (HCT-15 colon): > 100 µM
TGI (HCT-15 colon): > 100 µM
GI50 (CAKI-1 renal): 49.1 µM
TGI (CAKI-1 renal): > 100 µM
GI50 (M14 melanoma): > 100 µM
TGI (M14 melanoma): > 100 µM
GI50 (UACC-257 melanoma): 46.6 µM
TGI (UACC-257 melanoma): > 100 µM
GI50 (MOLT-4 leukemia): > 100 µM
TGI (MOLT-4 leukemia): > 100 µM
GI50 (HOP-92 NSCLC): 31.7 µM
TGI (HOP-92 NSCLC): > 100 µM

COc1ccccc1/C=N\N/C(N)=N\N=C\c1ccccc1OC
GI50 (SK-MEL-2 melanoma): 0.527 µM
TGI (SK-MEL-2 melanoma): 10.3 µM
GI50 (SN12C renal): 1.7 µM
TGI (SN12C renal): > 46.8 µM
GI50 (SW-620 colon): 0.376 µM
TGI (SW-620 colon): 18.9 µM
GI50 (CCRF-CEM leukemia): 0.323 µM
TGI (CCRF-CEM leukemia): 2.08 µM
GI50 (HCT-15 colon): 0.465 µM
TGI (HCT-15 colon): > 37.5 µM
GI50 (CAKI-1 renal): 0.207 µM
TGI (CAKI-1 renal): 4.11 µM
GI50 (M14 melanoma): 0.266 µM
TGI (M14 melanoma): 3.13 µM
GI50 (UACC-257 melanoma): 4.29 µM
TGI (UACC-257 melanoma): > 23.6 µM
GI50 (MOLT-4 leukemia): 0.355 µM
TGI (MOLT-4 leukemia): 3.9 µM
GI50 (HOP-92 NSCLC): 0.578 µM
TGI (HOP-92 NSCLC): 31.6 µM

CCOC(=O)c1ccc(NC(=O)Oc2ccc3c(C)cc(=O)oc3c2)cc1
TGI (SK-MEL-2 melanoma): 79 µM
TGI (SN12C renal): > 100 µM
TGI (SW-620 colon): > 100 µM
TGI (CCRF-CEM leukemia): 58.4 µM
TGI (HCT-15 colon): > 100 µM
TGI (CAKI-1 renal): > 100 µM
TGI (M14 melanoma): > 100 µM
TGI (UACC-257 melanoma): > 100 µM
TGI (MOLT-4 leukemia): 58 µM
TGI (HOP-92 NSCLC): 54.1 µM

O=C(Nc1ccc(Nc2ccncc2)cc1)c1ccc([N+](=O)[O-])cc1
GI50 (SK-MEL-2 melanoma): 9.64 µM
TGI (SK-MEL-2 melanoma): 28.9 µM
GI50 (SN12C renal): 2.75 µM
TGI (SN12C renal): 8.79 µM
GI50 (SW-620 colon): 2.22 µM
TGI (SW-620 colon): 5.08 µM
GI50 (CCRF-CEM leukemia): 3.37 µM
GI50 (HCT-15 colon): 4.95 µM
TGI (HCT-15 colon): > 40.6 µM
GI50 (CAKI-1 renal): 6.02 µM
TGI (CAKI-1 renal): 19.3 µM
GI50 (M14 melanoma): 7.18 µM
TGI (M14 melanoma): 26.9 µM
GI50 (UACC-257 melanoma): 10.5 µM
TGI (UACC-257 melanoma): 26.2 µM
GI50 (MOLT-4 leukemia): 3.3 µM
TGI (MOLT-4 leukemia): > 33.3 µM
GI50 (HOP-92 NSCLC): 4.96 µM
TGI (HOP-92 NSCLC): 21.7 µM

COc1cc(Nc2ncccc2C(=O)NCc2cn(Cc3cccc(Oc4ccccc4)c3)nn2)cc(OC)c1
GI50 (SK-MEL-2 melanoma): 6.68 µM
TGI (SK-MEL-2 melanoma): > 100 µM
GI50 (SN12C renal): 7.41 µM
TGI (SN12C renal): > 100 µM
GI50 (SW-620 colon): 3.88 µM
TGI (SW-620 colon): > 100 µM
GI50 (CCRF-CEM leukemia): 4.19 µM
TGI (CCRF-CEM leukemia): > 100 µM
GI50 (HCT-15 colon): 3.89 µM
TGI (HCT-15 colon): > 100 µM
GI50 (CAKI-1 renal): 6.3 µM
TGI (CAKI-1 renal): > 100 µM
GI50 (M14 melanoma): 4.8 µM
TGI (M14 melanoma): > 100 µM
GI50 (UACC-257 melanoma): 4.86 µM
TGI (UACC-257 melanoma): > 100 µM
GI50 (MOLT-4 leukemia): 4.86 µM
TGI (MOLT-4 leukemia): > 100 µM
GI50 (HOP-92 NSCLC): 46.7 µM
TGI (HOP-92 NSCLC): > 100 µM

CN1CCN(C2CCN(C(=O)Nc3cc(Oc4ccc(NC(=O)C5(C(=O)Nc6ccc(F)cc6)CC5)c(F)c4)ccn3)CC2)CC1
GI50 (SK-MEL-2 melanoma): 0.744 µM
TGI (SK-MEL-2 melanoma): 2.18 µM
GI50 (SN12C renal): 0.855 µM
TGI (SN12C renal): > 7.82 µM
GI50 (SW-620 colon): 1.43 µM
TGI (SW-620 colon): > 10 µM
GI50 (CCRF-CEM leukemia): 1.26 µM
TGI (CCRF-CEM leukemia): > 5.7 µM
GI50 (HCT-15 colon): 2.04 µM
TGI (HCT-15 colon): > 10 µM
GI50 (CAKI-1 renal): 0.932 µM
TGI (CAKI-1 renal): > 10 µM
GI50 (M14 melanoma): 0.639 µM
TGI (M14 melanoma): 1.8 µM
GI50 (UACC-257 melanoma): 0.73 µM
TGI (UACC-257 melanoma): 2.27 µM
GI50 (MOLT-4 leukemia): 0.803 µM
TGI (MOLT-4 leukemia): > 2.7 µM
GI50 (HOP-92 NSCLC): 0.483 µM
TGI (HOP-92 NSCLC): > 2.54 µM

CCCCOC(=O)CNC(=O)OC/C=C/C#CC#C/C=C/COC(=O)NCC(=O)OCCCC
GI50 (SK-MEL-2 melanoma): > 100 µM
TGI (SK-MEL-2 melanoma): > 100 µM
GI50 (SN12C renal): > 100 µM
TGI (SN12C renal): > 100 µM
TGI (SW-620 colon): > 100 µM
GI50 (CCRF-CEM leukemia): > 100 µM
TGI (CCRF-CEM leukemia): > 100 µM
TGI (HCT-15 colon): > 10 µM
GI50 (CAKI-1 renal): > 100 µM
TGI (CAKI-1 renal): > 100 µM
GI50 (M14 melanoma): > 100 µM
TGI (M14 melanoma): > 100 µM
TGI (UACC-257 melanoma): > 10 µM
GI50 (MOLT-4 leukemia): > 100 µM
TGI (MOLT-4 leukemia): > 100 µM
GI50 (HOP-92 NSCLC): > 100 µM
TGI (HOP-92 NSCLC): > 100 µM

CC(=O)CCn1ncc(Cl)c(Cl)c1=O
TGI (SK-MEL-2 melanoma): 28.4 µM
TGI (SN12C renal): 27.9 µM
TGI (SW-620 colon): 39 µM
TGI (CCRF-CEM leukemia): > 100 µM
TGI (HCT-15 colon): 20.5 µM
TGI (CAKI-1 renal): 3.66 µM
TGI (M14 melanoma): 29.7 µM
TGI (UACC-257 melanoma): 31.5 µM
TGI (MOLT-4 leukemia): > 100 µM
TGI (HOP-92 NSCLC): 34.1 µM

CC1(C)S[C@@H]2[C@H](NC(=O)C3(N)CCCCC3)C(=O)N2[C@H]1C(=O)O
TGI (SK-MEL-2 melanoma): > 100 µM
TGI (SN12C renal): > 100 µM
TGI (SW-620 colon): > 100 µM
TGI (CCRF-CEM leukemia): > 100 µM
TGI (HCT-15 colon): > 100 µM
TGI (CAKI-1 renal): > 100 µM
TGI (M14 melanoma): > 100 µM
TGI (UACC-257 melanoma): > 100 µM
TGI (MOLT-4 leukemia): > 100 µM
TGI (HOP-92 NSCLC): > 100 µM

Reference: PubChem BioAssay (NCI)
